Earlier results, collected in paper PMC12677607, “Identification of a Pair of Linear or Cyclic Naturally Inspired Bifunctional Lipopeptide Antibiotics That Overcome Antimicrobial Resistance” (Advanced Science, 2025).

Experiments:
[1] = parameters: method as in earlier work; settings: Figure S20; cited from earlier work
[2] = tested on: Gram negative and positive bacteria; parameters: method as in 2 sources, one per row (each row's own in cited_ref): ref 49 (a number printed in a supplementary file, which may have a reference list of its own: not looked up in the article's list) ||| ref 50 (a number printed in a supplementary file, which may have a reference list of its own: not looked up in the article's list); settings: Figure S20, known paired peptides; cited from earlier work
[3] = parameters: method as in earlier work; settings: Figure S20; cited from earlier work; remark: listed apart in the source
Gram negative bacteria = tested on: Gram negative bacteria; parameters: method as in 2 sources, one per row (each row's own in cited_ref): ref 27 (a number printed in a supplementary file, which may have a reference list of its own: not looked up in the article's list) ||| ref 26 = [26]; PMID 24281661; doi:10.1038/ja.2013.121; 26 S. Kozuma , Y. Hirota‐Takahata , D. Fukuda , N. Kuraya , M. Nakajima , O , A , J. Antibiot. (Tokyo) 2014 , 67 , 237 . 24281661 10.1038/ja.2013.121; settings: cited from earlier work; for MIC, anti-Gram negative activity: Figure S20, known paired peptides
Excerpt: All 17 synAQUs were initially assayed for antimicrobial activity against four Gram‐negative bacteria, four Gram‐positive bacteria, and one fungal pathogen.

Bacaucin-1
hemolytic activity [1]: No hemolytic activity | antibacterial activity [2]: Specific anti-bacterial activity against MR S A | cytotoxic activity [3]: No cytotoxic activity

Brevicidine
MIC, anti-Gram negative activity (Gram negative bacteria): 2 to 4 µg/mL

Laterocidine
MIC, anti-Gram negative activity (Gram negative bacteria): 2 to 4 µg/mL

pedopeptin B
anti-Gram-negative activity (Gram negative bacteria; in words): potent anti‐Gram‐negative activity
